Test results taken from patent publication EP0318767A2, “Esters of pharmacologically active carboxylic acids splittable under physiological conditions” (F. HOFFMANN-LA ROCHE AG, priority 1987, dated 1989).

Key:
[1] = system: Mäusen; assay: Acute toxicity after a single oral administration to mice; type: in vivo
Description: (§1) Man verursacht eine experimentelle Septikämie in 16-20 g schweren Albinomäusen, indem man den Versuchstieren eine Probe einer verdünnten Kultur des Testorganismus, Escherichia coli 25922, welche über Nacht gewachsen ist. intraperitoneal injiziert. Die verabreichte Probe wird dabei so bemessen, dass die verabreichte Dosis etwa 10-20 mal grösser ist, als die Dosis, welche benötigt wird um 50% der unbehandelten Versuchstiere innerhalb von 48 Stunden zu töten. Die Bakterien wurden als Suspension in Kulturbrühe injiziert. Sowohl für die Kontrolle als auch für die Behandlung wurden für jede getestete Dosis Gruppen zu je 5 Versuchstieren verwendet. Die erfindungsgemässen Ester wurden oral verabreicht, und zwar als Lösung in Tween 80 (4%), wobei die Konzentrationen so gewählt wurden, dass jedes Versuchstier 500 µl erhielt. Die Behandlungen erfolgten 1 und 3 Stunden nach der Infektion. Die ED₅₀ ist diejenige Dosis, welche 50% der Versuchstiere schützt, und wurde ausgehend von der Ueberlebensrate nach 4 Tagen nach der Infektion mittels der Probitmethode berechnet. In der nachfolgenden Tabelle sind die ED₅₀-Werte in mg/kg p.o. für Vertreter der erfindungsgemassen Stoffklasse angegeben. Die Tabelle enthält ausserdem Angaben über die akute Toxizität der erfindungsgemässen Ester bei einmaliger oraler Verabreichung an Mäusen. Tabelle

[2] = system: Escherichia coli 25922; assay: Experimental septicaemia in mice, oral antimicrobial efficacy; type: in vivo; conditions: Albino mice 16-20 g infected i.p. with Escherichia coli 25922, ester given orally in Tween 80 (4%) 1 and 3 h after infection, dose protecting 50% of animals, survival 4 days after infection, probit method; for ED50: read-out: ED₅₀ in mg/kg p.o.
Description: Die perorale antimikrobielle Wirksamkeit der erfindungsgemässen Ester von antibiotisch wirksamen Carbonsäuren kann beispielsweise im nachfolgend beschriebenen Tierversuch nachgewiesen werden:
as §1

Row | SMILES | DL₅₀ in mg/kg p.o. [1] [mg/kg] | ED50 [2] [mg/kg] | ED₅₀ in mg/kg p.o. [2]
1 | CC/C=C(\COC(=O)C1=C(CN=[N+]=[N-])CS[C@@H]2[C@H](NC(=O)/C(=N\OC)c3csc(N)n3)C(=O)N12)C(=O)OCC(C)C [Verbindung A, (E)-2-(Isobutoxycarbonyl)-2-pentenyl (6R,7R)-7-[(Z)-2-(2-amino-4-thiazolyl)-2-(methoxyimino)acetamido]-3-(azidomethyl)-8-oxo-5-thia-1-azabicyclo[4.2.0]oct-2-en-2-carboxylat] | >5000 | 0.28 | 
2 | CC/C=C(\COC(=O)C1=C(C)CS[C@@H]2[C@H](NC(=O)/C(=N\OC)c3csc(N)n3)C(=O)N12)C(=O)OCC(C)C [Verbindung B, (E)-2-(Isobutoxycarbonyl)-2-pentenyl (6R,7R)-7-[(Z)-2-(2-amino-4-thiazolyl)-2-(methoxyimino)acetamido]-3-methyl-8-oxo-5-thia-1-azabicyclo[4.2.0]oct-2-en-2-carboxylat] |  | 1.4 | 
3 | C/C=C(\COC(=O)C1=C(C)CS[C@@H]2[C@H](NC(=O)/C(=N\OC)c3csc(N)n3)C(=O)N12)C(=O)OCC [Verbindung C, (E)-2-(Aethoxycarbonyl)-2-butenyl (6R,7R)-7-[(Z)-2-(2-amino-4-thiazolyl)-2-(methoxyimino)acetamido]-3-methyl-8-oxo-5-thia-azabicyclo[4.2.0]oct-2-en-2-carboxylat] | >5000 |  | 0,89 mg/kg
